According to ChEMBL document CHEMBL5532694, “PDE-stable 2'3'-cGAMP analogues, containing 5'-S-phosphorothioester linkage, as STING agonists” (RSC Med Chem, 2024):

Tests used:
[1] = molecular target: T1, Ectonucleotide pyrophosphatase/phosphodiesterase family member 1 (Homo sapiens, UniProt P22413); test: Stability of compound assessed as ENPP1 (unknown origin) mediated compound degradation at 300 uM measured upto 24 hrs by HPLC analysis; type: ADME
T1 sequence (P22413 whole entry): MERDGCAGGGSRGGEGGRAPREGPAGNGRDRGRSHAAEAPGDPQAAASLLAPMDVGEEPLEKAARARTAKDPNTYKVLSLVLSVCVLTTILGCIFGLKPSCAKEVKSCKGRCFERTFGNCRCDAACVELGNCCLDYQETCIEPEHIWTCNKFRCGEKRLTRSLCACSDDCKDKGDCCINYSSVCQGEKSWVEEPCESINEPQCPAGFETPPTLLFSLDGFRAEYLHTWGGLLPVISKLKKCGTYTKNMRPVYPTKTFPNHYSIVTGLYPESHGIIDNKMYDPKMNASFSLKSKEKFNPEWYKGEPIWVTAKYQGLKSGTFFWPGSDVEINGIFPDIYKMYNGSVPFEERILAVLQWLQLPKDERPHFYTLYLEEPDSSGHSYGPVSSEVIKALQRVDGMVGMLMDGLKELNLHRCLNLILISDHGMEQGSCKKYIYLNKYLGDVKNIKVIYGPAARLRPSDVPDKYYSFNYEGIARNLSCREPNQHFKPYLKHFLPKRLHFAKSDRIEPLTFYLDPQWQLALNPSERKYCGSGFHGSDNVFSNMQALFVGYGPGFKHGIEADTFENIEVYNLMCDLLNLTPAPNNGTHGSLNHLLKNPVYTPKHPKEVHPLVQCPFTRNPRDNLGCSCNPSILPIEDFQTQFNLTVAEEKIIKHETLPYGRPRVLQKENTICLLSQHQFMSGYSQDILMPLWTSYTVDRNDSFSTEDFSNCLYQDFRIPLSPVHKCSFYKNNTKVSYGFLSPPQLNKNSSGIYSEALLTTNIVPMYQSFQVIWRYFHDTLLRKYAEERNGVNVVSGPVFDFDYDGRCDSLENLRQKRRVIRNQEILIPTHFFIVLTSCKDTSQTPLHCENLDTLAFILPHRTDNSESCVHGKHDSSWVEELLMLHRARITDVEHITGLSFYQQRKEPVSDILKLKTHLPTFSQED

[2] = Stability of compound at 95 degreeC incubated for 5 mins by HPLC analysis; type: physicochemical
[3] = Stability of compound assessed as Poxin (unknown origin) mediated compound degradation at 300 uM and measured after 24 hrs by HPLC analysis; type: ADME
[4] = molecular target: T2, Stimulator of interferon genes protein (Homo sapiens, UniProt Q86WV6)
T2 sequence (Q86WV6 whole entry): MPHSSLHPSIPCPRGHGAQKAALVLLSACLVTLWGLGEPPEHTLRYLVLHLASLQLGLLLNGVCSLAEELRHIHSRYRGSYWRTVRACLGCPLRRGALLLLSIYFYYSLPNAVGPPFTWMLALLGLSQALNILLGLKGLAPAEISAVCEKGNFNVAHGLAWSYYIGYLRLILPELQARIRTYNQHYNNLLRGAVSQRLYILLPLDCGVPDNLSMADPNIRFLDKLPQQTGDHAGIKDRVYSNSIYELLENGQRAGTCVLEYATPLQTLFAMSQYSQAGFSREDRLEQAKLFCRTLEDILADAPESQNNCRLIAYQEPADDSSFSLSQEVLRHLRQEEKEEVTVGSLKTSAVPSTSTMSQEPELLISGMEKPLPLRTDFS
Description: Binding affinity to wildtype human STING expressed in Escherichia coli BL21 (DE3) assessed as thermal stability by measuring increase in melting temperature by differential scanning fluorimetry analysis

[5] = molecular target: T2, Stimulator of interferon genes protein; test: Agonist activity at STING in human THP1-Dual KI-hSTING-R232 cells assessed as IRF activation incubated for 24 hrs by QUANTI-Luc reagent based luminescence assay; type: cell-based
[6] = Stability of compound assessed as Poxin (unknown origin) mediated compound degradation at 300 uM and measured after 3 hrs by HPLC analysis; type: ADME
[7] = molecular target: T2, Stimulator of interferon genes protein; test: Agonist activity at STING in wildtype human THP1-Dual cells assessed as IRF activation incubated for 24 hrs by QUANTI-Luc reagent based luminescence assay; type: cell-based
[8] = molecular target: T2, Stimulator of interferon genes protein; test: Displacement of 2'-Fluo-AHC-c-di-GMP from wildtype human STING expressed in Escherichia coli BL21 (DE3) incubated for 5 mins by fluorescence polarization assay
[9] = Stability of compound assessed as Poxin (unknown origin) mediated compound degradation at 300 uM and measured after 30 mins by HPLC analysis; type: ADME; conditions: 0.5 h

Stability [1]	Stability [2]	Stability [3]	ΔTm [4] [°C]	EC50 [5] [µM]	Stability [6]	EC50 [7] [µM]	IC50 [8] [µM]	Structure (SMILES)	Stability [9]
Stable	Stable	Stable	–	–	–	–	–	CCN(CC)CC.CCN(CC)CC.Nc1nc2c(ncn2[C@@H]2O[C@@H]3COP(=O)(O)O[C@H]4[C@@H](F)[C@H](n5cnc6c(N)ncnc65)O[C@@H]4CSP(=O)(O)O[C@@H]2[C@@H]3O)c(=O)[nH]1	–
Stable	Stable	–	8.2	27.4	Unstable	27.2	18.6	CCN(CC)CC.CCN(CC)CC.Nc1nc2c(ncn2[C@@H]2O[C@@H]3COP(=O)(O)O[C@H]4[C@@H](O)[C@H](n5cnc6c(N)ncnc65)O[C@@H]4CSP(=O)(O)O[C@@H]2[C@@H]3O)c(=O)[nH]1	–
–	–	–	–	16.4	–	37	7.87	Nc1nc2c(ncn2[C@@H]2O[C@@H]3COP(=O)(O)O[C@H]4C[C@H](n5cnc6c(N)ncnc65)O[C@@H]4CSP(=O)(O)O[C@@H]2[C@@H]3O)c(=O)[nH]1	–

Structure (SMILES)	Stability [1]	Stability [2]	Stability [3]	ΔTm [4] [°C]	EC50 [5] [µM]	Stability [6]	EC50 [7] [µM]	IC50 [8] [µM]	Stability [9]
Nc1nc2c(ncn2[C@@H]2O[C@@H]3COP(=O)(O)O[C@H]4[C@@H](O)[C@H](n5cnc6c(N)ncnc65)O[C@@H]4COP(=O)(O)O[C@@H]2[C@@H]3O)c(=O)[nH]1	Unstable	Stable	–	–	–	–	–	–	Unstable
